Source: patent US20150094321A1, “COMBINATION” (GlaxoSmithKline LLC, priority 2009, published 2015)

Assays:
Assay in all cases: Cell growth inhibition assay
Format in all cases: cell-based
[1] = tested on: MDA-MB-453; conditions: Homo sapiens, MDA-MB-453, MDA-MB-453, breast, HER2+, PIK3CA H1047R; single agent; read-out: IC50 Single Agent (mean +/- std)
Protocol: (§1) Human breast tumor lines. BT-474, HCC1419, HCC1937, HCC1954, HCC202, KPL-1, MDA-MB-157, MDA-MB-175-VII, MDA-MB-361, MDA-MB-453, SK-BR-3, SUM225PE, UACC893, and ZR-75-1; lung tumor line, CALU-3; and melanoma line, CHL-1, were from ATCC. Human breast tumor line JIMT-1 was from European Collection of Cell Cultures (UK). Human breast tumor lines SUM149PT, SUM190PT and SUM52PE were from Asterand. These lines were cultured in RPMI 1640 medium containing 10% fetal bovine serum (FBS). A head and neck tumor line, LICR LON HN5 (HN5), a gift from the Institute of Cancer Research, Surrey, U.K, was cultured in Dulbecco's modified Eagle medium (DMEM) containing 5% FBS; KPL-4 breast tumor cell line was kindly provided by Dr Junichi Kurebayashi (Kawasaki Medical School, Okayama, Japan) and cultured in DMEM containing 5% FBS. JIMT-1 is a line derived from a patient clinically resistant to trastuzumab (Herceptin®). BT-474-J4 is a single cell clone derived from a pool of BT-474 cells that were selected to grow in lapatinib to a concentration of 3 μM.
(§2) All cells were cultured for a minimum of 72 hours prior to cell plating. Cells were assayed in a 96-well tissue culture plate (NUNC 136102) of RPMI medium containing 10% FBS for all cells at 2,000 cells per well except KPL-4 and HN5 which were plated in DMEM containing 5% FBS at 500 cells per well. Approximately 24 hours after plating, cells were exposed to ten, two-fold or three-fold serial dilutions of compound or the combination of the two agents at a constant molar to molar ratio of 1:1 Compound A to Compound B in RPMI media containing 10% FBS or DMEM containing 5% FBS. Cells were incubated in the presence of compounds for 3 days. ATP levels were determined by adding Cell Titer Glo® (Promega) according to the manufacturer's protocol. Briefly, Cell Titer Glo® was added each plate, incubated for 20 minutes then luminescent signal was read on the SpectraMax L plate reader with a 0.5 sec integration time.
(§3) Inhibition of cell growth was estimated after treatment with compound or combination of compounds for three days and comparing the signal to cells treated with vehicle (DMSO). Cell growth was calculated relative to vehicle (DMSO) treated control wells. Concentration of compound that inhibits 50% of control cell growth (IC50) was interpolated using nonlinear regression with the equation, y=(A+(B−A)/(1+(C/x)̂D))), where A is the minimum response (ymin), B is the maximum response (ymax), C is the inflection point of the curve (EC50) and D is the Hill coefficient. […]

[2] = tested on: HCC1954; conditions: Homo sapiens, HCC1954, HCC1954, breast, HER2+, PIK3CA H1047R; single agent; read-out: IC50 Single Agent (mean +/- std)
Protocol: as §1, §2, §3

[3] = tested on: ZR-75-1; conditions: Homo sapiens, ZR-75-1, ZR-75-1, breast, PTEN L108R; single agent; read-out: IC50 Single Agent (mean +/- std)
Protocol: as §1, §2, §3

[4] = tested on: KPL-4; conditions: Homo sapiens, KPL4, KPL-4, breast, HER2+, PIK3CA H1047R; single agent; read-out: IC50 Single Agent (mean +/- std)
Protocol: as §1, §2, §3

[5] = tested on: SUM190PT; conditions: Homo sapiens, breast, HER2+, PIK3CA H1047R, single agent, read-out: IC50 Single Agent (mean +/- std)
Protocol: as §1, §2, §3

[6] = tested on: UACC893; conditions: Homo sapiens, UACC-893, UACC893, breast, HER2+, PIK3CA H1047R; single agent; read-out: IC50 Single Agent (mean +/- std)
Protocol: as §1, §2, §3

[7] = tested on: SUM52PE; conditions: Homo sapiens, breast, FGFR2+, WT, single agent, read-out: IC50 Single Agent (mean +/- std)
Protocol: as §1, §2, §3

[8] = tested on: MDA-MB-361; conditions: Homo sapiens, MDA-MB-361, MDA-MB-361, breast, HER2+, PIK3CA E545K; single agent; read-out: IC50 Single Agent (mean +/- std)
Protocol: as §1, §2, §3

[9] = tested on: HN5; conditions: Homo sapiens, HN5, HN5, H&N, EGFR+, WT; single agent; read-out: IC50 Single Agent (mean +/- std)
Protocol: as §1, §2, §3

[10] = tested on: CHL-1; conditions: Homo sapiens, CHL-1, CHL-1, melanoma, WT; single agent; read-out: IC50 Single Agent (mean +/- std)
Protocol: as §1, §2, §3

[11] = tested on: Calu-3; conditions: Homo sapiens, Calu-3, Calu-3, lung, HER2+, WT; single agent; read-out: IC50 Single Agent (mean +/- std)
Protocol: as §1, §2, §3

[12] = tested on: SUM149PT; conditions: Homo sapiens, breast, PTEN low, single agent, read-out: IC50 Single Agent (mean +/- std)
Protocol: as §1, §2, §3

Measured: IC50

CC(=O)Nc1cccc(-n2c(=O)n(C3CC3)c(=O)c3c(Nc4ccc(I)cc4F)n(C)c(=O)c(C)c32)c1 [Compound A, N-{3-[3-cyclopropyl-5-(2-fluoro-4-iodo-phenylamino)-6,8-dimethyl-2,4,7-trioxo-3,4,6,7-tetrahydro-2H-pyrido[4,3-d]pyrimidin-1-yl]phenyl}acetamide]
not listed: [9] | [10] | [11] | [12]
> 1 µM: all other assays above

Cn1ncc(Cl)c1-c1cc(C(=O)N[C@H](CN)Cc2ccc(F)c(F)c2)oc1Cl [Compound B, N-{(1S)-2-amino-1-[(3,4-difluorophenyl)methyl]ethyl}-5-chloro-4-(4-chloro-1-methyl-1H-pyrazol-5-yl)-2-furancarboxamide]
> 1 µM: [9] | [10] | [11] | [12]
